Source: PMC3679022, “A Cancer Specific Cell-Penetrating Peptide, BR2, for the Efficient Delivery of an scFv into Cancer Cells” (PLoS ONE, 2013)
Residues, ends and D or L forms follow the SMILES beside them.

Columns and labels:
HeLa cells = type: cell-based, human; settings: FACS
Description: To evaluate the internalization of FITC-labeled peptides, HeLa cells were seeded onto 12-well plates at a density of 2×10^5 cells per well and incubated for 24 h. FITC-labeled peptides, at various concentrations ranging from […], were then incubated with the cells for 30 min at 37°C. To compare the cellular uptake of peptides, cancer and normal cells were treated with FITC-labeled peptides (each, 10 µM) and incubated for 30 min at 37°C. Following the incubation, cells were washed three times with ice-cold PBS to remove excess extracellular complexes. Next, the cells were treated with trypsin (1 mg/ml) for 10 min to remove any remaining peptides bound to the cell surface. After trypsinization, the cells were collected by centrifugation (1,000×g for 5 min), resuspended with 500 µl ice-cold 2% FBS/PBS containing propidium iodide (PI), and then immediately analyzed (10,000 events/sample) by fluorescence activated cell sorting (FACS).
To understand further the cell-penetrating mechanism of peptides, the effects of temperature and metabolic inhibitors were examined. To elucidate the temperature dependency, HeLa cells were incubated at 4°C for 30 min prior to the addition of the peptides. Next, cells were treated with FITC-labeled peptides (each, 5 µM) at 4°C for 30 min. For the energy-depletion study, HeLa cells were preincubated with sodium azide (NaN3, 10 mM) at 37°C for 1 h and then incubated with FITC-labeled peptides (each, 5 µM) at 37°C for 30 min.
To study the role of endocytosis in peptide uptake, cells were pretreated with several endocytosis inhibitors at 37°C for 1 h: (i) amiloride (5 mM), which is known to block macropinocytosis by inhibiting a sodium channel; (ii) nocodazole (100 ng/ml), which inhibits the clathrin-mediated pathway; and (iii) methyl-ß-cyclodextrin (MßCD, 5 mM), which inhibits lipid raft-mediated processes by depleting cholesterol from the plasma membrane. All inhibitors were purchased from Sigma (St. Louis, MO).
To examine the effects of negatively charged components on the cell surface for peptide internalization, HeLa cells were pretreated with gangliosides (monosialoganglioside GM3 from canine blood), heparin sulfate, or sialic acid (Neu5Ac, all from Sigma) (20 µg/ml) for 30 min. For the inhibition of ganglioside biosynthesis, cells were pretreated with D-threo-1-phenyl-2-hexadecanoyl amino-3-morpholino-1-propanol (PPMP, 5 µM) for 48 h.
For all of these experimental conditions, flow cytometry analyses were performed with live cells using a Becton Dickinson FACSCalibur flow cytometer (BD Biosciences, San Diego, CA). In each case, the fluorescence of 10,000 viable cells was acquired. Viable cells were gated based on a sideward and forward scatter. For data analysis, WinMDI software (Joe Trotter, Scripps Research Institute, La Jolla, CA) was used. The statistical significance was evaluated by Student’s t-test at a 95% confidence interval.
Figure 2 BR2 specifically penetrates cancer cell membranes in a concentration-dependent manner. (A) Analysis of the cell-penetrating efficiency of each peptide in different cell types by flow cytometry. FITC-labeled Tat, BR1 and BR2 peptides (10 µM) were added to different cell types: HeLa, HCT116 and B16/F10 cancer cells and HaCat, BJ and NIH 3T3 normal cells. After 30 min of incubation at 37°C, the FITC-positive cells were counted by flow cytometry. Values represent the percentage of fluorescence-positive cells in the total cell population. (B) Quantitative assessment of cell penetration of each peptide by flow cytometry. HeLa cells were incubated with FITC-labeled peptides at concentrations of 1, 2, 5, or 10 µM for 30 min at 37°C. Afterwards the cells were washed with cold PBS and harvested and cellular fluorescence was analyzed by flow cytometry. […] Prior to analysis, extracellular fluorescence of surface bound peptides was removed by a trypsin treatment (1 mg/ml for 10 min). […]

[1] = system: HCT116 cells (K-ras mutated cells); assay: Cell proliferation assay (MTT); type: cell-based, human; set-up: dose or concentration left out as unconfirmed; settings: same concentrations as fusion proteins (Fig. S4:), 24 h
Description: To assess the anti-proliferative activity of peptides and anti-Ras scFv fusion proteins, HCT116 cells (K-ras mutated cells) were seeded in 96-well plates at a density of 2×10^4 cells/well in 100 µL of DMEM supplemented with 10% FBS and cultured for 24 h at 37°C. […] Cell viability was measured with the 3-(4,5-dimethylthiazol-2-yl)-2,5-diphenyl tetrazolium bromide (MTT) assay using the CellTiter 96® Non-radioactive Cell Proliferation assay kit (Promega, Madison, WI) according to the manufacturer’s instructions. The absorbance of the solution was measured at 570 nm using a Microplate Reader (Bio-Rad). Cell viability was expressed as the percentage of viable cells treated with scFv or peptide-scFv fusion proteins compared to the PBS-treated control (100%). All experiments were done in triplicate.
Figure 4 Intracellular uptake of peptides and anti-Ras scFv fusion proteins and their anti-proliferative activity. […] (B) Protein uptake was analyzed by Western blotting of fractionated lysates from HCT116 cells treated with PBS, anti-Ras scFv, BR2- or Tat-scFv fusion protein (each, 2 µM) at 37°C for 2 h. […] Cell proliferation was determined using the MTT assay. […]
HCT116 cells were seeded in 96-well plates at a density of 2×10^4 cells/well in 100 μl of DMEM supplemented with 10% FBS and cultured for 24 h at 37°C. […] The absorbance of the solution was measured at 570 nm using a Microplate Reader (Bio-Rad). […]

[2] = system: cancer cells (HeLa, HCT116 and B16/F10); assay: Confocal laser scanning microscopy of FITC-labeled peptide uptake, cancer cells; type: cell-based, human, mouse; settings: FITC-labeled peptide 5 µM, 30 min, 37°C, live unfixed cells
Description: (§1) To investigate the cell-penetrating ability and the intracellular distribution of the internalized peptides, live confocal microscopy was performed on three cancer lines (HeLa, HCT116 and B16/F10) and three normal cell lines (HaCat, BJ and NIH 3T3). Briefly, cells (2×10^5) were plated on a glass coverslip placed in a 6-well plate, grown overnight, and then incubated with FITC-labeled peptides (5 µM for each cell line) for 30 min. The cells were then rinsed three times with phosphate buffered saline (PBS, pH 7.4), and mounted on microscope slides with fluorescence mounting solution (Dako Corp, Carpinteria, CA). Colocalization of BR2 with lysosomes was observed by using LysoTracker Red DND-99 (Molecular Probe, Eugene, OR). To avoid the effects of fixation artifacts, involving both methanol and paraformaldehyde, cells were not fixed, [27]. The distribution of FITC-labeled peptides was analyzed using a confocal scanning laser Zeiss LSM 510 microscope (Jena, Germany) equipped with a 40× and 20× objective. Fluorophores were excited with an argon laser (488 nm) for FITC and a HeNe laser (543 nm) for LysoTracker Red.
(§2) (B,C) In vitro cytotoxicity of peptides.

[3] = system: normal cells (HaCat, BJ and NIH 3T3); assay: Confocal laser scanning microscopy of FITC-labeled peptide uptake, normal cells; type: cell-based, human, mouse; settings: FITC-labeled peptide 5 µM, 30 min, 37°C, live unfixed cells
Description: as §1, §2

human erythrocytes = type: cell-based; settings: 25 µM, pH 7.4
Description: Hemolytic activity was assayed as described by Aboudy et al. with slight modifications; 3 ml of freshly prepared human erythrocytes was washed with isotonic PBS, pH 7.4, until the color of the supernatant turned clear. The washed erythrocytes were then diluted to a final volume of 20 ml with the same buffer. Peptide samples (10 µl), serially diluted in PBS, were added to 190 µl of the cell suspension in microcentrifuge tubes. Following gentle mixing, the tubes were incubated at 37°C for 30 min and then centrifuged at 4,000×g for 5 min. The supernatant (100 µl) was removed to a new tube and the absorbance at 567 nm was determined. The relative optical density, as compared with that of the cell suspension treated with 0.2% Triton X-100, was defined as percentage of hemolysis. The hemolysis percentage was calculated using the following equation: percentage hemolysis = [(Abs 567 nm in the peptide solution – Abs 567 nm in PBS)/(Abs 567 nm in 0.2% Triton X-100 – Abs 567 nm in PBS)]×100.
as §2

Q: For “RKKRRQRRR [Tat, well-known CPP Tat (49–57), reference compound]”, which “decrease of cellular uptake at 4°C compared to 37°C” value (HeLa cells; FITC-labeled peptide 5 µM, 30 min at 4°C after preincubation at 4°C) is on record?
A: Its value is 31.6%.

Q: And the “reduction of uptake by ATP depletion (sodium azide)” value (HeLa cells; NaN3 10 mM preincubation 1 h 37°C, then FITC-labeled peptide 5 µM 30 min 37°C)?
A: Its value is 42.5%.

Q: And the “effect of ganglioside synthesis inhibitor PPMP on peptide uptake” value (HeLa cells; PPMP 5 µM pretreatment 48 h)?
A: Its value is “not”.

Q: And the “effect of exogenous gangliosides on peptide penetration” value (HeLa cells; gangliosides (GM3) 20 µg/ml, 30 min)?
A: The value was “not affected”.

Q: And the “effect of exogenous heparin on peptide uptake” value (HeLa cells; heparin 20 µg/ml, 30 min)?
A: Its value is “severely reduced”.

Q: And the “effect of exogenous sialic acids on peptide penetration” value (HeLa cells; sialic acid (Neu5Ac) 20 µg/ml, 30 min)?
A: Its value is “not affected”.

Q: What about the “anti-proliferative activity of peptide alone” value [1] of the same compound?
A: Its value is “did not show any detectable inhibitions”.

Q: With RAGLQFPVGRLLR [BR1] as the compound, how does the “cellular uptake (confocal microscopy)” value [2] read?
A: The value was “negligible cellular uptake levels”.

Q: What about the “cellular uptake (confocal microscopy)” value [3] of the same compound?
A: The value was “negligible cellular uptake levels”.

Q: Which hemolysis (human erythrocytes) does the source give for `CC(C)C[C@H](NC(=O)CNC(=O)[C@H](C)NC(=O)[C@@H](N)CCCNC(=N)N)C(=O)N[C@@H](CCC(N)=O)C(=O)N[C@@H](Cc1ccccc1)C(=O)N1CCC[C@H]1C(=O)N[C@H](C(=O)NCC(=O)N[C@@H](CCCNC(=N)N)C(=O)N[C@@H](CC(C)C)C(=O)N[C@@H](CC(C)C)C(=O)N[C@@H](CCCNC(=N)N)C(=O)N[C@@H](CCCNC(=N)N)C(=O)N[C@@H](CC(C)C)C(=O)N[C@@H](CC(C)C)C(=O)N[C@@H](CCCNC(=N)N)C(=O)N[C@@H](CCCNC(=N)N)C(=O)N[C@@H](CC(C)C)C(=O)N[C@@H](CC(C)C)C(=O)N[C@@H](CCCNC(=N)N)C(=O)O)C(C)C` [BR3, buforin IIb] (H-RAGLQFPVGRLLRRLLRRLLR-OH) here?
A: Its hemolysis is no less than 5%.
